# Where “and” joins values, the source holds several entries; their conditions need not be identical. Equal values may be shown once.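 48-hour exposure; five concentrations; linearly interpolated endpoints. Here, GI50 denotes the concentration required for 50% inhibition of growth. At the TGI there is no net growth.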
# Columns and labels:
# Assay in all cases: inhibition of tumour cell growth, NCI panel, 48 h
# [1] = tested on: HL-60(TB) leukemia
# [2] = tested on: LXFL 529 NSCLC
# [3] = tested on: SF-539 CNS
# [4] = tested on: K-562 leukemia
# [5] = tested on: KM20L2 colon
# [6] = tested on: UO-31 renal
# [7] = tested on: SR leukemia
# [8] = tested on: OVCAR-8 ovarian
# [9] = tested on: MDA-MB-435
# [10] = tested on: HS 578T breast
structure (smiles),measurement,setting,value
N#CCC(=O)N1CCCCCCC1,TGI,[1],78 µM
same,TGI,[2],> 100 µM
same,TGI,[3],> 100 µM
same,TGI,[4],> 100 µM
same,TGI,[5],> 100 µM
same,TGI,[6],> 100 µM
O=c1oc2ccccc2c(O)c1C(C/C(CCN1CCCC1)=N\Nc1ccccc1)c1ccccc1 (configuration not stated),TGI,[1],60 µM
same,TGI,[2],> 100 µM
same,TGI,[7],75.1 µM
same,TGI,[8],> 100 µM
same,TGI,[3],> 100 µM
same,TGI,[4],> 100 µM
same,TGI,[5],> 100 µM
same,TGI,[6],> 100 µM
NNC(=O)C(=O)N/N=C(\CCC(=O)Nc1ccc(Cl)cc1)Cc1nc2ccccc2s1,TGI,[1],> 100 µM
same,TGI,[2],> 100 µM
same,TGI,[7],68.5 µM
same,TGI,[8],> 100 µM
same,TGI,[3],90.4 µM
same,TGI,[4],> 100 µM
same,TGI,[5],> 100 µM
same,TGI,[6],> 100 µM
O=NN(CCCl)C(=O)NC1CCC(CC2CCC(NC(=O)N(CCCl)N=O)CC2)CC1 (configuration not stated),TGI,[1],> 100 µM
same,TGI,[2],> 100 µM
same,TGI,[7],88.7 µM
same,TGI,[8],> 31.6 µM
same,TGI,[3],25 µM
same,TGI,[4],> 100 µM
same,TGI,[5],> 100 µM
same,TGI,[6],99.9 µM
COC(=O)c1nn(C(=N)c2ccc(Cl)cc2)c2c1CCC2,TGI,[1],> 100 µM
same,TGI,[2],> 100 µM
same,TGI,[7],92.3 µM
same,TGI,[8],> 100 µM
same,TGI,[3],> 100 µM
same,TGI,[4],> 100 µM
same,TGI,[5],> 100 µM
same,TGI,[6],> 100 µM
CN1C/C(=C\C=C\c2ccccc2)C(=O)/C(=C/C=C/c2ccccc2)C1,TGI,[2],> 100 µM
same,TGI,[8],> 100 µM
same,TGI,[3],> 100 µM
same,TGI,[4],> 100 µM
same,TGI,[5],> 100 µM
same,TGI,[6],> 100 µM
CCN(CC)CC(=N)N(CC)c1ccccc1,TGI,[1],> 100 µM
same,TGI,[2],> 100 µM
same,TGI,[8],> 100 µM
same,TGI,[3],> 100 µM
same,TGI,[4],> 100 µM
same,TGI,[5],> 100 µM
same,TGI,[6],> 100 µM
COc1ccc(N2C(=O)C3c4[nH]c5ccccc5c4C4CCCCC4C3C2=O)cc1 (configuration not stated),TGI,[1],55.1 µM
same,TGI,[2],84.9 µM
same,TGI,[7],25.2 µM
same,TGI,[8],28.6 µM
same,TGI,[3],32.8 µM
same,TGI,[4],73.8 µM
same,TGI,[5],> 100 µM
same,TGI,[6],> 100 µM
CC(C)=CC(=O)Cc1nc2ccc([N+](=O)[O-])cc2[nH]c1=O,TGI,[1],> 100 µM
same,TGI,[2],> 100 µM
same,TGI,[8],> 100 µM
same,TGI,[3],> 100 µM
same,TGI,[4],> 100 µM
same,TGI,[5],> 100 µM
same,TGI,[6],> 100 µM
O=C(/C=C\c1cccc2ccccc12)c1cccc2ccccc12,GI50,[1],2.9 µM
same,TGI,[1],9.29 µM and 25.6 µM
same,GI50,[2],2.9 µM
same,TGI,[2],13.6 µM
same,GI50,[7],3.95 µM
same,TGI,[7],> 100 µM
same,GI50,[8],2.61 µM
same,TGI,[8],6.01 µM
same,TGI,[3],28 µM
same,GI50,[4],2.82 µM
same,TGI,[4],18.6 µM
same,GI50,[5],3.96 µM
same,TGI,[5],15 µM
same,TGI,[6],27.4 µM
C[C@]12CCC(=O)C=C1CC[C@@H]1C2CC[C@]2(C)c3nn(-c4ccccc4)nc3CC12 (some centres not stated),TGI,[1],> 100 µM
same,TGI,[2],> 100 µM
same,TGI,[8],> 100 µM
same,TGI,[3],> 100 µM
same,TGI,[4],> 100 µM
same,TGI,[5],> 100 µM
same,TGI,[6],> 100 µM
O=C1c2ccccc2C(=O)c2[nH]c(Cc3ccc(F)cc3)nc21,TGI,[1],55.2 µM
same,TGI,[2],88.2 µM
same,TGI,[7],55.5 µM
same,TGI,[8],35.3 µM
same,TGI,[3],32 µM
same,TGI,[4],> 100 µM
same,TGI,[5],34.4 µM
same,TGI,[6],59.5 µM
N.N.O=P([O-])([O-])C1(P(=O)([O-])[O-])CCCCCN1.[Pt+2],GI50,[1],> 100 µM
same,TGI,[1],> 100 µM
same,GI50,[2],> 100 µM
same,TGI,[2],> 100 µM
same,GI50,[8],> 100 µM
same,TGI,[8],> 100 µM
same,GI50,[3],31.9 µM
same,TGI,[3],> 100 µM
same,GI50,[4],> 100 µM
same,TGI,[4],> 100 µM
same,GI50,[5],> 100 µM
same,TGI,[5],> 100 µM
same,GI50,[6],> 100 µM
same,TGI,[6],> 100 µM
O=C1OCC2=C1C(c1ccccc1)c1cc3c(cc1N2CCO)OCCO3 (configuration not stated),GI50,[1],0.118 µM
same,TGI,[1],0.406 µM
same,GI50,[7],0.14 µM
same,TGI,[7],2.57 µM
same,GI50,[8],0.651 µM
same,TGI,[8],> 50 µM
same,GI50,[3],0.298 µM
same,GI50,[4],0.191 µM
same,TGI,[4],> 50 µM
same,GI50,[6],0.3 µM
same,TGI,[6],> 35.3 µM
same,GI50,[9],0.113 µM
same,TGI,[9],0.32 µM
same,GI50,[10],0.206 µM
same,TGI,[10],10.8 µM
CN(C)C(=O)Oc1c(-c2ccccc2)c(=O)n2c3ccccc3n3c(=O)n(C)c(=O)c1c23,TGI,[2],> 100 µM
same,TGI,[7],> 100 µM
same,TGI,[8],> 100 µM
same,TGI,[3],> 100 µM
same,TGI,[6],> 100 µM
CC(C)=CCCC(C)C1=C(O)C(=O)C(C)=CC1=O (configuration not stated),TGI,[1],0.586 µM
same,TGI,[7],5.39 µM
same,TGI,[8],40.9 µM
same,TGI,[3],41.9 µM
same,TGI,[4],4.37 µM
same,TGI,[6],21.3 µM
same,TGI,[9],43.5 µM
same,TGI,[10],> 79.3 µM
O=S1Nc2c(Cl)cc(Cl)c(Cl)c2S1 (configuration not stated),TGI,[1],> 100 µM
same,TGI,[2],> 100 µM
same,TGI,[7],> 100 µM
same,TGI,[8],> 100 µM
same,TGI,[3],> 100 µM
same,TGI,[4],> 100 µM
same,TGI,[5],> 100 µM
same,TGI,[6],> 100 µM
CCN(CC)CCNC(=O)c1cccc2nc3ccccc3nc12,TGI,[2],> 87.9 µM
same,TGI,[8],> 100 µM
same,TGI,[3],28.8 µM
same,TGI,[4],> 100 µM
same,TGI,[5],67.8 µM
same,TGI,[6],> 71.7 µM
O=C(c1ccccc1)c1c(C(F)(F)F)n([O-])c2ccc(C(F)(F)F)cc2[n+]1=O,GI50,[1],0.084 µM
same,TGI,[1],0.309 µM
same,GI50,[7],0.109 µM
same,TGI,[7],0.393 µM
same,GI50,[8],1.2 µM
same,TGI,[8],3.57 µM
same,GI50,[3],0.315 µM
same,TGI,[3],0.745 µM
same,GI50,[4],0.319 µM
same,TGI,[4],0.779 µM
same,GI50,[6],0.173 µM
same,TGI,[6],0.322 µM
same,GI50,[9],0.567 µM
same,TGI,[9],1.28 µM
same,GI50,[10],0.537 µM
same,TGI,[10],1.33 µM
O=C1NCCS(=O)(=O)N2CCC[C@@H]12,TGI,[1],> 100 µM
same,TGI,[2],> 100 µM
same,TGI,[7],> 100 µM
same,TGI,[8],> 100 µM
same,TGI,[3],> 100 µM
same,TGI,[4],> 100 µM
same,TGI,[5],> 100 µM
same,TGI,[6],> 100 µM
CCN(Cc1c(Cl)cccc1Cl)c1ccc(CO)c(Cl)c1,GI50,[1],8.17 µM
same,TGI,[1],25.7 µM
same,GI50,[7],12.8 µM
same,TGI,[7],36.7 µM
same,GI50,[8],13.7 µM
same,TGI,[8],29.7 µM
same,GI50,[3],15.1 µM
same,TGI,[3],28.6 µM
same,GI50,[4],0.439 µM
same,TGI,[4],10.6 µM
same,GI50,[6],12.6 µM
same,TGI,[6],26.2 µM
same,GI50,[9],9.22 µM
same,TGI,[9],22.4 µM
same,GI50,[10],15.8 µM
same,TGI,[10],37.9 µM
Oc1ccc(Cc2cc(Cl)cc(Cl)c2O)cc1Cl,TGI,[1],3.36 µM
same,TGI,[7],47.2 µM
same,TGI,[8],36.3 µM
same,TGI,[3],34.3 µM
same,TGI,[4],37.6 µM
same,TGI,[6],31 µM
same,TGI,[9],27.1 µM
same,TGI,[10],37.2 µM
C/C=N\N1C(=O)c2ccccc2C1=O,TGI,[1],> 100 µM
same,TGI,[2],> 100 µM
same,TGI,[7],> 100 µM
same,TGI,[8],> 100 µM
same,TGI,[3],> 100 µM
same,TGI,[4],> 100 µM
same,TGI,[5],> 100 µM
same,TGI,[6],> 100 µM

# Reference: PubChem BioAssay (NCI)
